Test results published in patent US20250368633A1, “AZEPINE FUSED RING COMPOUND AS RIPK1 INHIBITOR AND USE THEREOF” (ARTIVILA BIOPHARMA, priority 2022, published 2025).

Assays:
[1] = target: T1, RIPK1 kinase (Homo sapiens, UniProt Q13546); assay: In vitro RIPK1 kinase activity assay (ADP-Glo), inhibition by compounds at 1 μM; type: biochemical; conditions: compound 1 μM; ATP 10 μM; MBP substrate 100 μg/mL; read-out: RIPK1 kinase activity inhibition rate range
T1 construct: purchased Promega VA7593
T1 sequence (Q13546 1-671): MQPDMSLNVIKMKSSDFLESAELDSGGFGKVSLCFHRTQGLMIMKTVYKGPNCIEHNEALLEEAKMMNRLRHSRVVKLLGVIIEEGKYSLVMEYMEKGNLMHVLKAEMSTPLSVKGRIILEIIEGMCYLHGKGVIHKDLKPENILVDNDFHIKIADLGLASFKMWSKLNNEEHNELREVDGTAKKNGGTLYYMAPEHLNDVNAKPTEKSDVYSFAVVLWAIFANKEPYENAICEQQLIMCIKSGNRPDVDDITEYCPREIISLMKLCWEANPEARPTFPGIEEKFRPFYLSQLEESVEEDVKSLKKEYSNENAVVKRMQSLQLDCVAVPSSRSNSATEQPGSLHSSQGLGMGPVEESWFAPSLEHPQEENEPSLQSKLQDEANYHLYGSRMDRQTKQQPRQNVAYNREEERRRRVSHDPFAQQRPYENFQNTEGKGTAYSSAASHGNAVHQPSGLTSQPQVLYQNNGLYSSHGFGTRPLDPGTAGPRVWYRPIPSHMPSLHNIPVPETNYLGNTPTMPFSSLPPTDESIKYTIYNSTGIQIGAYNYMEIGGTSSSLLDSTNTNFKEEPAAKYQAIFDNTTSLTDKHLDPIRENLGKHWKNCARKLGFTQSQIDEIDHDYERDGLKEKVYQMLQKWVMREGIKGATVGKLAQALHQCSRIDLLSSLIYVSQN
Method in brief: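 Compound and RIPK1 were preincubated 15 min at room temperature, then reacted 1 h with 10 μM ATP and 100 μg/mL MBP substrate in kinase buffer D. ADP formed was measured by ADP-Glo luminescence and converted to percent inhibition of kinase activity.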

[2] = target: T1, RIPK1 kinase; assay: In vitro RIPK1 kinase activity IC50 assay (ADP-Glo); type: biochemical; conditions: ATP 10 μM; MBP substrate 100 μg/mL; 8 concentration points; read-out: IC50 range of compounds for RIPK1 kinase activity
Description: RIPK1 kinase activity was assayed using the ADP-Glo assay and RIPK1 kinase reaction system (Promega, catalog number: VA7593). The RIPK1 kinase activity assay was performed according to the Promega kit manual.
The experimental method was briefly described as below. The concentration of RIPK1 kinase in the RIPK1 kinase reaction system was determined by kinase titration and S/B10. The compound was diluted with 1× kinase buffer D (1% DMSO), 1 μL of 1 mM compound DMSO stock solution was added to 19 μL 1× kinase buffer D, and the compound was serially diluted with 1× kinase buffer D at a ratio of 1:5, for a total of 8 concentration points, and a control with the same DMSO volume was set. RIPK1 kinase was diluted with 1× kinase buffer D. 2.5×ATP/substrate was diluted with 1× kinase buffer D. The final concentration of ATP in the kinase reaction system was 10 μM. The final concentration of MBP substrate was 100 μg/mL. 1 μL of diluted compound and 2 μL of diluted RIPK1 kinase were mixed, incubated at room temperature for 15 minutes, 2 μL of 2.5×ATP/substrate was added, mixed, and incubated at room temperature for 1 hour. 5 μL ADP-Glo reagent was added to each well and incubated at room temperature for 1 hour. 10 μL ADP detection reagent was added to each well and incubated at room temperature for another 0.5-1 hour. The chemiluminescent signal was read with a microplate reader and the kinase activity inhibition rate was calculated. IC50 was obtained by fitting the nonlinear regression curve log [inhibitor] vs. response-variable slope (four parameters) in GraphPad Prism.

[3] = test system: U937 cells; assay: Inhibition rate of compound (1 μM) on necroptosis of U937 cells (TSZ-induced, CellTiter-Glo); type: cell-based; conditions: TSZ (hTNF-α, SM-164, Z-VAD-FMK) 20 hours
Method in brief: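 U937 cells were pretreated 15 min with compound, then necroptosis was triggered with TSZ (Z-VAD-FMK, hTNF-α, SM-164) for 20 h at 37° C. Viability was read as ATP by CellTiter-Glo luminescence, and inhibition (%) was taken relative to no-TSZ and TSZ-only wells.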

Row | SMILES | inhibition at 1 µM [1] | IC50 [2] | Inhibition rate range of compounds (1 μM) on U937 cell necroptosis [3]
1 | CC(Cc1ccccc1)NC(=O)C(=O)N[C@H]1COc2ccc(C#CCCO)cc2N(C)C1=O (mixture of isomers) [Example 37, N^1-((S)-7-(4-hydroxybut-1-yn-1-yl)-5-methyl-4-oxo-2,3,4,5-tetrahydrobenzo[b][1,4]oxazepin-3-yl)-N^2-(1-phenylpropan-2-yl)oxalamide] | 50 to 74% | < 100 nM | A (A: ≥90%)
2 | CC(NC(=O)C(=O)N[C@H]1COc2ccc(C#CCCO)cc2N(C)C1=O)c1ccccc1 (mixture of isomers) [Example 41, N^1-((S)-7-(4-hydroxybut-1-yn-1-yl)-5-methyl-4-oxo-2,3,4,5-tetrahydrobenzo[b][1,4]oxazepin-3-yl)-N^2-(1-phenylethyl)oxalamide] | ≥ 75% | < 100 nM | A (A: ≥90%)
3 | CN1CCC(CC#Cc2ccc3c(c2)N(C)C(=O)[C@@H](NC(=O)C(=O)NCCc2ccccc2)CO3)C1=O (mixture of isomers) [Example 82, N^1-((3S)-5-methyl-7-(3-(1-methyl-2-oxopyrrolidin-3-yl)prop-1-yn-1-yl)-4-oxo-2,3,4,5-tetrahydrobenzo[b][1,4]oxazepin-3-yl)-N^2-phenethyloxalamide] | ≥ 75% | < 100 nM | A (A: ≥90%)
4 | CN1C(=O)[C@@H](NC(=O)C(=O)NCCc2cccc(F)c2)COc2ccc(C#CCN3CCC(O)C3)cc21 (mixture of isomers) [Example 113, N^1-(3-fluorophenethyl)-N^2-((3S)-7-(3-(3-hydroxypyrrolidin-1-yl)prop-1-yn-1-yl)-5-methyl-4-oxo-2,3,4,5-tetrahydrobenzo[b][1,4]oxazepin-3-yl)oxalamide] | ≥ 75% | < 100 nM | A (A: ≥90%)
5 | C[C@@H](NC(=O)C(=O)N[C@H]1COc2ccc(C#CCN3CCC(O)C3)cc2N(C)C1=O)c1ccccc1 (mixture of isomers) [Example 126, N^1-((3S)-7-(3-(3-hydroxypyrrolidin-1-yl)prop-1-yn-1-yl)-5-methyl-4-oxo-2,3,4,5-tetrahydrobenzo[b][1,4]oxazepin-3-yl)-N^2-((R)-1-phenylethyl)oxalamide] | ≥ 75% | < 100 nM | A (A: ≥90%)
6 | CC(CNC(=O)C(=O)N[C@H]1COc2ccc(C#CCCO)cc2N(C)C1=O)c1ccccc1 (mixture of isomers) [Example 154, N^1-((S)-7-(4-hydroxybut-1-yn-1-yl)-5-methyl-4-oxo-2,3,4,5-tetrahydrobenzo[b][1,4]oxazepin-3-yl)-N^2-(2-phenylpropyl)oxalamide] | ≥ 75% | < 100 nM | A (A: ≥90%)
7 | CN1C(=O)[C@@H](NC(=O)C(=O)NCCc2ccccc2)COc2ccc(C#Cc3cccnc3)cc21 [Example 13, (S)—N^1-(5-methyl-4-oxo-7-(pyridin-3-ylethynyl)-2,3,4,5-tetrahydrobenzo[b][1,4]oxazepin-3-yl)-N^2-phenethyloxalamide] | ≥ 75% | < 100 nM | A (A: ≥90%)
8 | CN1C(=O)[C@@H](NC(=O)C(=O)NCCc2ccccc2)COc2ccc(C#Cc3ccsc3)cc21 [Example 17, (S)—N^1-(5-methyl-4-oxo-7-(thiophen-3-ylethynyl)-2,3,4,5-tetrahydrobenzo[b][1,4]oxazepin-3-yl)-N^2-phenethyloxalamide] | ≥ 75% | < 100 nM | A (A: ≥90%)
9 | CN1C(=O)[C@@H](NC(=O)C(=O)NCCc2ccccc2)COc2ccc(C#C[Si](C)(C)C)cc21 [Example 18, (S)—N^1-(5-methyl-4-oxo-7-((trimethylsilyl)ethynyl)-2,3,4,5-tetrahydrobenzo[b][1,4]oxazepin-3-yl)-N^2-phenethyloxalamide] | ≥ 75% | < 100 nM | A (A: ≥90%)
10 | CC#Cc1ccc2c(c1)N(C)C(=O)[C@@H](NC(=O)C(=O)NCCc1ccccc1)CO2 [Example 19, (S)—N^1-(5-methyl-4-oxo-7-(prop-1-yn-1-yl)-2,3,4,5-tetrahydrobenzo[b][1,4]oxazepin-3-yl)-N^2-phenethyloxalamide] | ≥ 75% | < 100 nM | A (A: ≥90%)
11 | CN1C(=O)[C@@H](NC(=O)C(=O)NCCc2ccccc2)COc2ccc(C#CC3CCOCC3)cc21 [Example 21, (S)—N^1-(5-methyl-4-oxo-7-((tetrahydro-2H-pyran-4-yl)ethynyl)-2,3,4,5-tetrahydrobenzo[b][1,4]oxazepin-3-yl)-N^2-phenethyloxalamide] | ≥ 75% | < 100 nM | A (A: ≥90%)
12 | CN1C(=O)[C@@H](NC(=O)C(=O)NCCc2ccccc2)COc2ccc(C#Cc3cnn(C)c3)cc21 [Example 22, (S)—N^1-(5-methyl-7-((1-methyl-1H-pyrazol-4-yl)ethynyl)-4-oxo-2,3,4,5-tetrahydrobenzo[b][1,4]oxazepin-3-yl)-N^2-phenethyloxalamide] | ≥ 75% | < 100 nM | B (B: 50-89%)
13 | CN1C(=O)[C@@H](NC(=O)C(=O)NCCc2ccccc2)COc2ccc(C#CC3CCCNC3)cc21 (stereo partly drawn) [Example 24, N^1-((3S)-5-methyl-4-oxo-7-(piperidin-3-ylethynyl)-2,3,4,5-tetrahydrobenzo[b][1,4]oxazepin-3-yl)-N^2-phenethyloxalamide] | 50 to 74% | < 100 nM | A (A: ≥90%)
14 | CN1C(=O)[C@@H](NC(=O)C(=O)NCCc2ccccc2)COc2ccc(C#Cc3cnc4cccnn34)cc21 [Example 25, (S)—N^1-(7-(imidazo[1,2-b]pyridazin-3-ylethynyl)-5-methyl-4-oxo-2,3,4,5-tetrahydrobenzo[b][1,4]oxazepin-3-yl)-N^2-phenethyloxalamide] | ≥ 75% | < 100 nM | A (A: ≥90%)
15 | CN1C(=O)[C@@H](NC(=O)C(=O)NCCc2ccccc2)COc2ccc(C#CC(C)(C)O)cc21 [Example 29, (S)—N^1-(7-(3-hydroxy-3-methylbut-1-yn-1-yl)-5-methyl-4-oxo-2,3,4,5-tetrahydrobenzo[b][1,4]oxazepin-3-yl)-N^2-phenethyloxalamide] | ≥ 75% | < 100 nM | A (A: ≥90%)
16 | CN1C(=O)[C@@H](NC(=O)C(=O)NCCc2ccccc2)COc2ccc(C#CCCO)cc21 [Example 31, (S)—N^1-(7-(4-hydroxybut-1-yn-1-yl)-5-methyl-4-oxo-2,3,4,5-tetrahydrobenzo[b][1,4]oxazepin-3-yl)-N^2-phenethyloxalamide] | ≥ 75% | < 100 nM | A (A: ≥90%)
17 | CN1C(=O)[C@@H](NC(=O)C(=O)NCc2ccccc2)COc2ccc(C#CCCO)cc21 [Example 32, (S)—N^1-benzyl-N^2-(7-(4-hydroxybut-1-yn-1-yl)-5-methyl-4-oxo-2,3,4,5-tetrahydrobenzo[b][1,4]oxazepin-3-yl)oxalamide] | ≥ 75% | < 100 nM | A (A: ≥90%)
